Ends that are not written are not given here.
Experiments:
[1] = target: T1, mammalian ribonucleotide reductase (Bos taurus, UniProt Q32LP1); experiment: Peptide inhibition of mammalian ribonucleotide reductase activity; type: biochemical; conditions: for % RI (relative inhibitory potency, (IC50 AcFTLDADF)/(IC50 peptide analog)) / IC50 / Fold decrease in RI relative to N-AcFTLDADF: Table 8; for % RI (relative inhibitory potency, (IC50 AcFTLDADF)/(IC50 peptide analog)): mean and average deviation of 2-3 determinations, others single; for IC50: Dixon plots of 4-6 concentration points, ranges are two independent determinations, read-out: IC50
T1 sequence (Q32LP1 1-791): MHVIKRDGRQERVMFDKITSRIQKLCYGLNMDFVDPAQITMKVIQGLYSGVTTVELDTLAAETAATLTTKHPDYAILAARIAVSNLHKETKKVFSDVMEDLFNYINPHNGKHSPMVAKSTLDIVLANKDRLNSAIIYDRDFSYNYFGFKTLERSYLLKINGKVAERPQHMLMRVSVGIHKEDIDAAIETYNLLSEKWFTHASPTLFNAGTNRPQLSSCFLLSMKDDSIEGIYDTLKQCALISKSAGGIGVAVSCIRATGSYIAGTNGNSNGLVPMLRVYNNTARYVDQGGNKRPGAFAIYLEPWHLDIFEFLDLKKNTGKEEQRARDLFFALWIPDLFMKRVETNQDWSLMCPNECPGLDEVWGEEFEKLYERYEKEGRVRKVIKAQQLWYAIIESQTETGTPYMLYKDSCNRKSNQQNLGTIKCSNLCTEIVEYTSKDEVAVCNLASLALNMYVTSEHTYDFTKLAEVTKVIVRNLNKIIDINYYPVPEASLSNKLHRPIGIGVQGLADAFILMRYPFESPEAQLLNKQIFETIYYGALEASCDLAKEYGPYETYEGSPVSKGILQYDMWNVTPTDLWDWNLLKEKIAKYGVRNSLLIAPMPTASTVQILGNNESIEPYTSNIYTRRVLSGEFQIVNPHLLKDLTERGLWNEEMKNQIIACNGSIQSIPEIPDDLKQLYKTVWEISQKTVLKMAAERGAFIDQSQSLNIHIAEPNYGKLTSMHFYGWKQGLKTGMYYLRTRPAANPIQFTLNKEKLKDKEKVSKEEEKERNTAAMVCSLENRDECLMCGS
Description: Standard assays of RR activity used in the studies presented herein involve the conversion of [^3 H]-ribonucleoside diphosphate (NDP) to [^3 H]-deoxyribonucleoside diphosphate (dNDP), using dithiothreitol as the external reductant.
All three methods yielded acceptable results, with the following limitations. Method 1 is useful for the assay of CDP to dCDP and ADP to dADP conversions, but is not useful for the assay of GDP reduction. It is also sensitive to large changes in the nucleotide composition of the assay medium. […] Method 2 is the easiest to perform on purified enzymes, and can be used with all four NDPs as substrates, but is difficult to use with crude enzyme, largely because contaminating phosphatase activities can skew results. Method 3 is usable with all four NDPs, but is also somewhat sensitive to large changes in the nucleotide composition of the assay medium and requires column separation at 4° C.

[2] = target: T2, mouse R1 (Mus musculus, UniProt P07742); conditions: cited from earlier work
T2 construct: made in house; host or cells: R1: Hi5 or Sf9 insect cells (baculovirus); R2: E. coli
T2 sequence (P07742 1-792): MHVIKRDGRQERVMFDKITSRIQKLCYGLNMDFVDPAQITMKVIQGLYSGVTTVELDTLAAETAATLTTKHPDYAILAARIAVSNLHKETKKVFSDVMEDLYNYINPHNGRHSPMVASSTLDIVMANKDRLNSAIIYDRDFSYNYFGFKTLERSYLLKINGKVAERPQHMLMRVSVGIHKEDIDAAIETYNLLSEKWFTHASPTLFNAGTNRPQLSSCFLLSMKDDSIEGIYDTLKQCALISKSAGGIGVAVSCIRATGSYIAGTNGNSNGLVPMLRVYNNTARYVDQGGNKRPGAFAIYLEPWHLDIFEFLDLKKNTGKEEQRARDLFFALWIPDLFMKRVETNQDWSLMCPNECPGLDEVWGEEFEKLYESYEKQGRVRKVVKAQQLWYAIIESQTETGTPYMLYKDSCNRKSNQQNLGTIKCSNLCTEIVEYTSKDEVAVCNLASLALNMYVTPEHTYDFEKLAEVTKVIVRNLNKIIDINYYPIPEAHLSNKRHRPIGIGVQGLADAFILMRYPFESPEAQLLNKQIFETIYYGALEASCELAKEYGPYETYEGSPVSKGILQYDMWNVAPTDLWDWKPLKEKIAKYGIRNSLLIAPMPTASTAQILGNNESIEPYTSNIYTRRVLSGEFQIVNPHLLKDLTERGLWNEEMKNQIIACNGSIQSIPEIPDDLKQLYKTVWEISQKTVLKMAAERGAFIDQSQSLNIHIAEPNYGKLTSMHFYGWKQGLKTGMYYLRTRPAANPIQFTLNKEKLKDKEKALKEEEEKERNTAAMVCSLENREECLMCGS

[3] = target: S. cerevisiae ribonucleotide reductase (Saccharomyces cerevisiae, UniProt P21524); experiment: Peptide inhibition of S. cerevisiae ribonucleotide reductase activity; type: biochemical; conditions: Table 9; read-out: IC50, Yeast RR
[4] = target: T1, mammalian ribonucleotide reductase; conditions: cited from earlier work
[5] = target: T3, E. coli RR (Escherichia coli, UniProt P00452); conditions: cited from earlier work
T3 sequence (P00452 whole entry, looked up): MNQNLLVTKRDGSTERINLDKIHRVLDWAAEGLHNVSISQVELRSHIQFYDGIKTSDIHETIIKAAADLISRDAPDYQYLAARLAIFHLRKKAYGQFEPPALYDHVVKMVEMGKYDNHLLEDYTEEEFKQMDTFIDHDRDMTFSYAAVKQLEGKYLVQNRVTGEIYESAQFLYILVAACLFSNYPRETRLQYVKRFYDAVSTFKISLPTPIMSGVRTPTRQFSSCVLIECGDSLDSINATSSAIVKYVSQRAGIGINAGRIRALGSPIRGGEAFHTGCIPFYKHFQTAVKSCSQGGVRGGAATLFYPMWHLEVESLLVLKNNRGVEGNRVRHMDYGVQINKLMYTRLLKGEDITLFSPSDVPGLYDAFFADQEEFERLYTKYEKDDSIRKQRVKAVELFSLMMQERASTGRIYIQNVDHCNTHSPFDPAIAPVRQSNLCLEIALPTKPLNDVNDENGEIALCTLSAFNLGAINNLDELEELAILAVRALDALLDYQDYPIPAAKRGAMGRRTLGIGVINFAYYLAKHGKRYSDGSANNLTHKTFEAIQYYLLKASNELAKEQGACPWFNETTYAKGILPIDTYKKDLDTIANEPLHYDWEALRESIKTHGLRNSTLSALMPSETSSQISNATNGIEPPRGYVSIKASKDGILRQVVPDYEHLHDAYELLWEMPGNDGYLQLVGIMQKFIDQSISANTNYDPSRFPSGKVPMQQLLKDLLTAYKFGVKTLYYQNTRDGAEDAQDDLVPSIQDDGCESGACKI

Chain of S. cerevisiae ribonucleotide reductase (P21524 whole entry): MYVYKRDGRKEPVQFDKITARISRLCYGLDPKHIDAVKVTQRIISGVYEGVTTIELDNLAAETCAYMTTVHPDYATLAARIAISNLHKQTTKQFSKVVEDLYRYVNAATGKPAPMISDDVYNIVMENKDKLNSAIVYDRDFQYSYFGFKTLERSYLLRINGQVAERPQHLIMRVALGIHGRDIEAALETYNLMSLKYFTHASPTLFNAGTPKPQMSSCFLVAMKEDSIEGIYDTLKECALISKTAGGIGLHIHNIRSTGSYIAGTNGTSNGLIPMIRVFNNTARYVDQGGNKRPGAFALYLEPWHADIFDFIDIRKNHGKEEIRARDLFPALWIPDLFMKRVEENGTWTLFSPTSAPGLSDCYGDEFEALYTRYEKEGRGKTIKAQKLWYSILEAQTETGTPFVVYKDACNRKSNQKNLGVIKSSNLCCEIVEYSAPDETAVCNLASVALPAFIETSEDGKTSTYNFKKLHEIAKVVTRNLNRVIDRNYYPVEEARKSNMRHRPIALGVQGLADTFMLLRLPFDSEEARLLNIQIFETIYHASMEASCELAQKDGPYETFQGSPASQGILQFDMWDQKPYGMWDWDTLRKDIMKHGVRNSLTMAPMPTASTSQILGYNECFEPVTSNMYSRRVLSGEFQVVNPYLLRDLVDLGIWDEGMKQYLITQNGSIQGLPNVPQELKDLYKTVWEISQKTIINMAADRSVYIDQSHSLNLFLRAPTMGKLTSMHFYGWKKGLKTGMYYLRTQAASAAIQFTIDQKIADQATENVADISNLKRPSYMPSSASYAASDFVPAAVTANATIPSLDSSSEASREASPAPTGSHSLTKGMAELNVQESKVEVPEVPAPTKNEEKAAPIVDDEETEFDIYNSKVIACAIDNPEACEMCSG

Substance	% RI (relative inhibitory potency, (IC50 AcFTLDADF)/(IC50 peptide analog)) [1]	IC50 [1]	other results
Ac-FTLDLDF [Ac-FTLDLDF]	35%	–	–
Ac-FTLNADF [Ac-FTLNADF, Acetyl-Phe-Thr-Leu-Asn-Ala-Asp-Phe]	–	25 to 29 µM	–
Ac-FTVDADF [Ac-FTVDADF]	35%	–	–
Ac-LDADF [Ac-LDADF]	–	> 400 µM	–
Ac-NSFTLDADF	–	9 to 15 µM	–
Ac-SFTLDADF	100%	–	Affinity for mR1 compared with AcFTLDADF [2]: same affinity
Ac-TFNEDF [AcTFNEDF]	–	–	IC50 [3]: 600 µM
Ac-YTLDADF [Ac-YTLDADF]	7%	–	Fold lower affinity for mR1 than AcFTLDADF [2]: 15 fold; Fold decrease in RI relative to N-AcFTLDADF [1]: five to ten
Acetyl-(p-amino-Phe)-Thr-Leu-Asp-Ala-Asp-Phe [Ac-F(4'-NH2)TLDADF]	10%	–	Fold decrease in RI relative to N-AcFTLDADF [1]: five to ten
Acetyl-(p-azido-Phe)-Thr-Leu-Asp-Ala-Asp-Phe [Ac-F(4'-N3)TLDADF]	10%	–	Fold decrease in RI relative to N-AcFTLDADF [1]: five to ten
DDLSNFQL [reference compound]	–	–	Inhibition of mRR [4]: does not inhibit mRR; Inhibition of E. coli RR [5]: inhibits eRR
FA-DAP-C(N)FTLDADF: folate-peptide conjugate: γ-1,5-diaminopentane folate condensate coupled to thiol of NCFTLDADF via sulfo-MBS (not fully specified (residue 2))	–	–	RR inhibition compared with AcFTLDADF [1]: comparable to AcFTLDADF
FTLDADF [FTLDADF, Phe-Thr-Leu-Asp-Ala-Asp-Phe]	–	> 400 µM	–
SFTLDADF	–	80 µM	–

From US6030942A, “Peptides peptide analogs peptidomimetics and other small molecules useful for inhibiting the activity of ribonucleotide reductase” (The Trustees of the University of Pennsylvania, priority 1998, dated 2000)
